Reference: patent publication US20250154212A1, “METHOD OF DISRUPTING MEMORY AND LIPOPEPTIDE FOR USE IN SUCH METHOD” (The Research Foundation for The State University of New York, priority 2023, published 2025)

Tested on: auditory-cued fear/threat memory in PKMζ-null mice
Assay: Auditory-cued fear/threat conditioning, infusion into basolateral amygdala, PKMζ-null mice
Format: in vivo, mouse
Conditions: 6 nmol in 0.3 μL into each BLA, tested 1 day post-injection
Method: Mice were 8-10 weeks old at the time of cannulation and 9-11 weeks old at the beginning of behavioral experiments. Mice were housed with cage-mates in plastic cages and provided with food and water ad libitum. Mice were maintained on a 12 h light/dark cycle (lights on at 7:00 am) and behavioral experiments began at 9:00 am.
Mice were injected intraperitoneally (1 ml/100 g body weight) with an anesthetic cocktail containing ketamine (10 mg/ml) and xylazine (2 mg/ml). Mice were provided with analgesic treatment prior to surgery (carprofen; 5 mg/ml). Guide cannulae (Plastics One, Roanoke, VA) were implanted bilaterally in the basolateral amygdala (from bregma: AP-1.7 mm; L+/−3.0 mm; DV-4.4 mm) and secured to the skull with three jeweler's screws and dental cement. Antisedan (0.66 ml/100 g body weight of 0.5 mg drug/ml solution) was given via i.p. injection after surgery to reverse the anesthesia.
For 7 days following surgery, mice were handled by freely exploring the experimenter's palm for 2-5 min. Mice were habituated, trained, and tested in the same conditioning box (Coulbourn Habitest, Coulboum Instruments) with differing floors and walls to produce two different contexts (Context A and Context B). […] Freezing behavior (cessation of all movement except breathing) during the tone on Test 1 and Test 2 was scored by an experimenter blind to the conditions. […]

In the case of `O=S(=O)(O)c1cc(O)c2c(S(=O)(=O)O)cc(S(=O)(=O)O)cc2c1` [ζ-stat, 1-naphthol-3,6,8-trisulphonic acid], the “auditory-cued fear/threat memory retention (% time freezing to tone)” value is reported as “not in PKMζ-null mice”.
